Test results reported in PubChem BioAssay AID1918932 (Molecular Pharmacology Branch, DTP, NCI, 2023).

System: 171881-019-R-J1-PDC complex spheroid viability
Assay: Anticancer human tumor 171881-019-R-J1-PDC patient-derived invasive breast carcinoma cell line growth inhibition
Conditions: for IC50: curve of first compound; for viability, T/C: stronger effect = lower value
From the text: Multicellular complex tumor spheroid response to LSD1 Inhibitor Iadademstat in combination with a variety of drugs and investigational agents in selected tumor cell lines
The current study was undertaken to assess response to LSD1 inhibitors in combination with standard-of-care drugs and investigational agents in solid tumor complex spheroid models as well as in the K-562 leukemia. Complex spheroids include a stromal component modeled by human endothelial cells (HUVEC) and fibroblasts modeled by human mesenchymal stem cells (MSCs). The concentration ranges selected for each drug and investigational agent were based upon clinically achievable concentrations if the clinical Cmax of the agent was known.
Compounds. The drugs and investigational agents used in this study are listed on Table 1. All of the agents used, including staurosporine (NSC755774) and gemcitabine (NSC613327), were obtained from the Developmental Therapeutics Program, NCI. FDA-approved anticancer drugs are available from the NCI at http://dtp.nci.nih.gov/branches/dscb/oncology_drugset_explanation.html. Drugs and investigational agents were >95% pure by proton nuclear magnetic resonance (NMR) and liquid chromatography/mass spectrometry (LC/MS). Stock solutions were prepared at 400x in DMSO, stored at -70 degrees C, and diluted in fresh medium prior to their use. The final concentration of DMSO in cell culture wells never exceeded 0.25% (v/v). The FDA-approved anticancer drug set is available from the Developmental Therapeutics Program at https://dtp.cancer.gov/organization/dscb/obtaining/available_plates.htm. All drugs and investigational agents were tested over a range starting from a high concentration at or near the clinical Cmax and decreasing in half-log increments. If the clinical Cmax for an agent had not been determined, the highest concentration tested was 10 microM.
Cell Lines. The patient-derived cancer cell (PDC) lines: 292921-168-R-J2-PDC, K24384-001-R-PDC, and 521955-158-R2-J5-PDC pancreatic carcinomas, 556581-035-R-J1 ovarian carcinoma, 324938-238-R-J1-PDC, 855422-203-R-J1-PDC and 883617-216-R-J1-PDC urothelial bladder carcinomas, 743489-274-T-PDC renal cell carcinoma, 138582-R-J1 Merkel cell tumor, K60290-347-R-J1 and K57222-313-R-J1-PDC glioblastomas, 653999-131-R-J2-PDC, LG0703-F948-PDC, and 349418-098-R-PDC non-small cell lung carcinomas, 885512-296-R-J2-PDC, 171881-019-R-J1-PDC breast carcinomas and 186277-243-T-J2-PDC and 233499-124-R-J2-PDC colon carcinomas were obtained from the NCI Patient-Derived Models Repository (PDMR, https://pdmr.cancer.gov). The established cell lines NCI/ADR-RES (RRID:CVCL_14520 and OVCAR-5 (RRID:CVCL_1628) ovarian carcinomas, 786-O (RRID:CVCL_1051) and A498 (RRID:CVCL_A498) renal cell carcinoma, NCI-H211 (ATCC, cat. CRL-5824; RRID:CVCL_1529), NCI-H196 (ATCC, cat. CRL-5823, RRID:CVCL_1509), SW 1271 (ATCC, cat. CRL-2177, RRID:CVCL_1716) and NCI-H1876 (ATCC, cat. CRL-5902, RRID:CVCL_1503) small cell lung carcinomas, MDA-MB-231 (RRID:CVCL_0062) and MDA-MB-468 (RRID:CVCL_0419)breast carcinomas (10-12). Pooled donor human umbilical vein endothelial cells (HUVEC, Lonza, cat. CC-2519) and human mesenchymal stem cells (hMSC, Lonza, cat. PT-2501) were purchased from Lonza (Walkersville, MD).
Cell Culture. All cells were maintained in an incubator at 37 degrees C and 5% CO2 with 95% humidity. The PDC lines were cultured according to standard operating procedures established by the NCI PDMR (https://pdmr.cancer.gov). Briefly all PDCs were thawed and cultured in Matrigel-coated flasks prepared with a working solution of 1X Ham's F-12 nutrient mix, without supplementation (Invitrogen, Waltham, MA, cat. 11765054), 100 U/mL penicillin-streptomycin (Invitrogen, cat. 15140122), and 2.5% Matrigel (Corning Inc., Corning, NY, cat. 354248) for the first three passages. […]
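Further: spheroids exposed to agents for 7 days after 3 days growth.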

With `CC[C@@]1(O)C(=O)OCc2c1cc1n(c2=O)Cc2cc3c(CN(C)C)c(O)ccc3nc2-1` + NC1CCC(NC2CC2c2ccccc2)CC1 the IC50 (second compound 0.1 µM) was > 100 nM, the IC50 (second compound 0.316 µM) was > 100 nM and the IC50 (second compound 1 µM) was > 100 nM. For the same molecule, the IC50 (second compound 3.16 µM) was > 100 nM, the IC50 (second compound 10 µM) was > 100 nM and the viability, T/C (second compound 0.1 µM, first compound 0.000316 µM) was 83.9%. For the same molecule, the viability, T/C (second compound 0.1 µM, first compound 0.001 µM) was 91.8%, the viability, T/C (second compound 0.1 µM, first compound 0.00316 µM) was 122% and the viability, T/C (second compound 0.1 µM, first compound 0.01 µM) was 74.7%. The viability, T/C (second compound 0.1 µM, first compound 0.0316 µM) was 69.5%, the viability, T/C (second compound 0.1 µM, first compound 0.1 µM) was 50.6% and the viability, T/C (second compound 0.316 µM, first compound 0.000316 µM) was 80.2%. The viability, T/C (second compound 0.316 µM, first compound 0.001 µM) was 86.1%, the viability, T/C (second compound 0.316 µM, first compound 0.00316 µM) was 125% and the viability, T/C (second compound 0.316 µM, first compound 0.01 µM) was 71.1%. For the same molecule, the viability, T/C (second compound 0.316 µM, first compound 0.0316 µM) was 67.3%, the viability, T/C (second compound 0.316 µM, first compound 0.1 µM) was 56.5% and the viability, T/C (second compound 1 µM, first compound 0.000316 µM) was 87.5%. For the same molecule, the viability, T/C (second compound 1 µM, first compound 0.001 µM) was 89.4%, the viability, T/C (second compound 1 µM, first compound 0.00316 µM) was 128% and the viability, T/C (second compound 1 µM, first compound 0.01 µM) was 77.6%. The viability, T/C (second compound 1 µM, first compound 0.0316 µM) was 72.4%, the viability, T/C (second compound 1 µM, first compound 0.1 µM) was 59% and the viability, T/C (second compound 3.16 µM, first compound 0.000316 µM) was 95.2%. The viability, T/C (second compound 3.16 µM, first compound 0.001 µM) was 94.5%, the viability, T/C (second compound 3.16 µM, first compound 0.00316 µM) was 138% and the viability, T/C (second compound 3.16 µM, first compound 0.01 µM) was 83.1%. It also gave a viability, T/C (second compound 3.16 µM, first compound 0.0316 µM) of 75.8%, a viability, T/C (second compound 3.16 µM, first compound 0.1 µM) of 62.3% and a viability, T/C (second compound 10 µM, first compound 0.000316 µM) of 88%. For the same molecule, the viability, T/C (second compound 10 µM, first compound 0.001 µM) was 93.7%, the viability, T/C (second compound 10 µM, first compound 0.00316 µM) was 133% and the viability, T/C (second compound 10 µM, first compound 0.01 µM) was 92.7%. For the same molecule, the viability, T/C (second compound 10 µM, first compound 0.0316 µM) was 90.7% and the viability, T/C (second compound 10 µM, first compound 0.1 µM) was 76.4%.
